Source: patent US20070015723A1, “Antiviral oligonucleotides having a conserved G4 core sequence” (priority 1992, published 2007)
Strand notation (5' to 3'): a small letter for the sugar, then the base; units joined by * are phosphorothioate-linked, units joined directly phosphodiester-linked; [ ] holds rarer units or linkages, { } end groups; capitals alone tell only the bases. d = 2'-deoxy (DNA)

Biological target: T1, human type II phospholipase A2 (Homo sapiens, UniProt P14555)
T1 sequence (P14555 21-144): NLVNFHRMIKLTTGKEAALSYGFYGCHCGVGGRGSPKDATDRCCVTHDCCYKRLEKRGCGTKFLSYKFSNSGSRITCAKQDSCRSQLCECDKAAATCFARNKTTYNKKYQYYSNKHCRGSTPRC
Assay: Human type II phospholipase A2 enzyme assay (3H-oleic acid labelled E. coli substrate)
Assay type: biochemical
Details: 1 μM

Substance | inhibition of human type II phospholipase A2
ISIS 3470: GTAGGGAGGGAGGGTATGAGA, phosphorothioate, SEQ ID NO 66 (dG*dT*dA*dG*dG*dG*dA*dG*dG*dG*dA*dG*dG*dG*dT*dA*dT*dG*dA*dG*dA) | completely inhibited

Same assay, conditions: 1 μM; Table 4

Substance | % Inhibition (1 μM) [%]
ISIS 3181: TCTGCCCCGGCCGTCGCTCCC, phosphorothioate, SEQ ID NO 58 (dT*dC*dT*dG*dC*dC*dC*dC*dG*dG*dC*dC*dG*dT*dC*dG*dC*dT*dC*dC*dC) | 42.7
ISIS 3182: CAGAGGACTCCAGAGTTGTAT, phosphorothioate, SEQ ID NO 59 (dC*dA*dG*dA*dG*dG*dA*dC*dT*dC*dC*dA*dG*dA*dG*dT*dT*dG*dT*dA*dT) | 30.2
ISIS 3184: TTCATGGTAAGAGTTCTTGGG, phosphorothioate, SEQ ID NO 60 (dT*dT*dC*dA*dT*dG*dG*dT*dA*dA*dG*dA*dG*dT*dT*dC*dT*dT*dG*dG*dG) | 25.1
ISIS 3185: CAAAGATCATGATCACTGCCA, phosphorothioate, SEQ ID NO 61 (dC*dA*dA*dA*dG*dA*dT*dC*dA*dT*dG*dA*dT*dC*dA*dC*dT*dG*dC*dC*dA) | 22.7
ISIS 3192: GGAAGGTTTCGAGQGAAGAGG, phosphorothioate, SEQ ID NO 63 | 28.1
ISIS 3193: CCTGCAGTAGGCCTGGAAGGA, phosphorothioate, SEQ ID NO 64 (dC*dC*dT*dG*dC*dA*dG*dT*dA*dG*dG*dC*dC*dT*dG*dG*dA*dA*dG*dG*dA) | 22.6
ISIS 3468: GGGACTCAGCAACGAGGGGTG, phosphorothioate, SEQ ID NO 65 (dG*dG*dG*dA*dC*dT*dC*dA*dG*dC*dA*dA*dC*dG*dA*dG*dG*dG*dG*dT*dG) | 97.5
ISIS 3470: GTAGGGAGGGAGGGTATGAGA, phosphorothioate, SEQ ID NO 66 (dG*dT*dA*dG*dG*dG*dA*dG*dG*dG*dA*dG*dG*dG*dT*dA*dT*dG*dA*dG*dA) | 88.9
ISIS 3471: AAGGAACTTGGTTAGGGTAGG, phosphorothioate, SEQ ID NO 67 (dA*dA*dG*dG*dA*dA*dC*dT*dT*dG*dG*dT*dT*dA*dG*dG*dG*dT*dA*dG*dG) | 34.5
ISIS 3472: TGGGTGAGGGATGCTTTCTGC, phosphorothioate, SEQ ID NO 68 (dT*dG*dG*dG*dT*dG*dA*dG*dG*dG*dA*dT*dG*dC*dT*dT*dT*dC*dT*dG*dC) | 69.0
ISIS 3473: CTGCCTGGCCTCTAGGATGGG, phosphorothioate, SEQ ID NO 69 (dC*dT*dG*dC*dC*dT*dG*dG*dC*dC*dT*dC*dT*dA*dG*dG*dA*dT*dG*dG*dG) | 25.9
ISIS 3474: ATAGAAGGGCTCCTGCCTGGC, phosphorothioate, SEQ ID NO 70 (dA*dT*dA*dG*dA*dA*dG*dG*dG*dC*dT*dC*dC*dT*dG*dC*dC*dT*dG*dG*dC) | 13.3
ISIS 3475: TCTCATTCTGGGTGGGTATAG, phosphorothioate, SEQ ID NO 71 (dT*dC*dT*dC*dA*dT*dT*dC*dT*dG*dG*dG*dT*dG*dG*dG*dT*dA*dT*dA*dG) | 67.0
ISIS 3476: GCTGGAAATCTGCTGGATGTC, phosphorothioate, SEQ ID NO 72 (dG*dC*dT*dG*dG*dA*dA*dA*dT*dC*dT*dG*dC*dT*dG*dG*dA*dT*dG*dT*dC) | 43.4

Same assay, conditions: 1 μM; Table 5, two separate experiments

Substance | % Inhibition (1 μM) [%]
GGG TGG GTA TAG AAG GGC: truncated version of ISIS 3196, SEQ ID NO 97 (dG*dG*dG*dT*dG*dG*dG*dT*dA*dT*dA*dG*dA*dA*dG*dG*dG*dC) | 85.3
GGG TGG GTA TAG AAG: truncated version of ISIS 3196, SEQ ID NO 98 (dG*dG*dG*dT*dG*dG*dG*dT*dA*dT*dA*dG*dA*dA*dG) | 82.5
GTA TAG AAG GGC TCC: truncated version of ISIS 3196, SEQ ID NO 100 (dG*dT*dA*dT*dA*dG*dA*dA*dG*dG*dG*dC*dT*dC*dC) | 9.2

Same assay, conditions: concentrations as high as 10 μM

Substance | inhibition of phospholipase A2
ISIS 1573: phosphorothioate deoxyoligonucleotide, SEQ ID NO: 120 (dG*dA*dG*dG*dC*dT*dG*dA*dG*dG*dT*dG*dG*dG*dA*dG*dG*dA) | did not significantly inhibit
